According to patent US20080220066A1 (HENDERSON MORLEY PLC, priority 2005, published 2008):
Converted amounts (≈) assume the structure as drawn. Read-outs that look alike come from different tables or passages of the source.

What was measured:
[1] = test system: Adenovirus; test: 50% plaque inhibitory concentration, Adenovirus; conditions: unidentified adenovirus, A549, read-out: Furosemide IC50
[2] = for Flux: Q24 divided by 24
[3] = test system: feline herpesvirus
[4] = test system: Herpes simplex virus (HSV); test: HSV standard plaque inhibition assay; assay type: cell-based; conditions: for IC50: Herpes simplex virus
Text: Using Herpes simplex virus (HSV), 50% plaque inhibitory dose (1D50) were established using the standard plaque inhibition assay.

With NS(=O)(=O)c1cc(C(=O)O)c(NCc2ccco2)cc1Cl [Furosemide, 5-(Aminosulfonyl)-4-chloro-2-[(2-furanylmethyl)amino]benzoic acid] the IC50 [1] was 440 ± 114 µg/mL (≈ 1330 µM), the “maximum concentrations observed in the receptor phase” value ([2]; 40:40:20 gels) was 543.60 µg/mL and the Release date ([2]; Ampule Formulation) was 667 μg cm^−2 h^0.5. For the same compound, the Q24 ([2]; Ampule Formulation (8% HPC)) was 2724 μg cm^−2, the Flux ([2]; Ampule Formulation) was 111 μg cm^−2 h^−1 and the “% applied dose” value ([2]; Gel 1:1, pH 7) was 17.9%. The “Release Rate” value ([2]; Gel 1:1, pH 7) was 7.18 μg cm^−2 h^0.5, the Flux ([2]; Gel 1:1, pH 7) was 2.69 μg cm^−2 h^−1 and the Q24 ([2]; Gel 1:1, prototype 40:40:20 mix, pH 7, 24 h) was 64.63 μg cm^−2. For the same compound, the Q24 ([2]; Gel 14:1 (F:D), prototype 40:40:20 mix, […] 981NF, pH 5, 24 h) was 543.60 μg cm^−2, the Flux ([2]; Gel 14:1, pH 5) was 22.65 μg cm^−2 h^−1 and the “% applied dose” value ([2]; Gel 14:1, pH 5, assuming 2 g of gel in donor) was 8.7%. The “Release Rate” value ([2]; Gel 14:1, pH 5, gradient of square root of time plot) was 124.51 μg cm^−2 h^0.5, the “% applied dose” value ([2]; Gel 14:1, pH 7) was 5.9% and the “Release Rate” value ([2]; Gel 14:1, pH 7) was 77.482 μg cm^−2 h^0.5. The Flux ([2]; Gel 14:1, pH 7) was 15.24 μg cm^−2 h^−1, the “% applied dose” value ([2]; Gel 14:1, pH 9) was 3.7% and the “Release Rate” value ([2]; Gel 14:1, pH 9) was 43.389 μg cm^−2 h^0.5. The Flux ([2]; Gel 14:1, pH 9) was 9.61 μg cm^−2 h^−1, the Q24 ([2]; Gel 14:1, prototype 40:40:20 mix, pH 7, 24 h) was 365.65 μg cm^−2 and the Q24 ([2]; Gel 14:1, prototype 40:40:20 mix, pH 9, 24 h) was 230.69 μg cm^−2. It also gave a Release date ([2]; HPC Formulation) of 2673 μg cm^−2 h^0.5, a Q24 ([2]; HPC Formulation (revised 50:40:10 gel, 8% HPC, pH 5, 14:1)) of 9085 μg cm^−2 and a Flux ([2]; HPC Formulation) of 388 μg cm^−2 h^−1. The Release date ([2]; Ultrez Formulation) was 1027 μg cm^−2 h^0.5, the Q24 ([2]; Ultrez Formulation (revised 50:40:10 gel, […] Ultrez, pH 5, 14:1)) was 6128 μg cm^−2 and the Flux ([2]; Ultrez Formulation) was 248 μg cm^−2 h^−1. The “reduction of release rate, 1:1 Gel versus 1:14 Gel” value ([2]; pH 7) was 10.8 fold, the “Virus particles per cell” value ([3]; each drug at its IC50, alone or both combined, No Drug 50) was 0.25 and the “production of infectious virus reduced by” value ([3]; each drug at its IC50, individually or in combination) was 99.5%. The IC50 ([4]; BHK-21, read-out: Furosemide IC50, host cell BHK21) was 800 µg/mL (≈ 2420 µM), the “ICVT activity” value ([4]; HSV plaque inhibition assay) was “potent ICVT activity” and the IC50 ([4]; read-out: Furosemide IC50, host cell Vero) was 1000 µg/mL (≈ 3020 µM).
